In patent publication US20250163047A1, “HETEROCYCLIC COMPOUNDS, COMPOSITIONS THEREOF, AND METHODS OF TREATMENT THEREWITH” (BeiGene, Ltd., priority 2022, published 2025) one finds IC50 data, which are given here for two compounds.

Assay [1] deals with T1, Cbl (aa49-434) (Homo sapiens, UniProt P22681).
T1 construct: Cbl (aa49-434, in-house); made in house
T1 sequence (P22681 49-434): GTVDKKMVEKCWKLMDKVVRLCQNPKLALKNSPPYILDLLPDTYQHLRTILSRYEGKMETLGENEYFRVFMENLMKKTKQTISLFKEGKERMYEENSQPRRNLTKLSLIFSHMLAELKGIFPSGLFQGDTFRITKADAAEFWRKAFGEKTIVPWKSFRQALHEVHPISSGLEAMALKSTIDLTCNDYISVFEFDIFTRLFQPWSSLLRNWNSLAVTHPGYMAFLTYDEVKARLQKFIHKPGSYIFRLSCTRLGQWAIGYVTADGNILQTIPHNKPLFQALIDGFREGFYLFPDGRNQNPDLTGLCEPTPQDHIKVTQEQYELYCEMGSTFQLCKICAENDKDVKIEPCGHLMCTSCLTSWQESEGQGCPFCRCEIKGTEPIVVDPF
Briefly: Co-expressed Cbl with BirA biochemical assay (CBL/E2-Ub binding, HTRF). To be noted: 0.6 nM Cbl co-expressed with BirA, read-out: co-express CBL/E2-Ub-binding assay IC50. The text has this: (§1) The assay in the absence of a Cbl-b/Cbl inhibitor, where phosphorylation of Cbl-b/Cbl by the Src kinase allows UbcH5B-Ub to bind to Cbl-b/Cbl and brings the Bodipy-Fluorescein tagged ubiquitin in proximity to the streptavidin-terbium bound to the N-terminal biotinylated Avi-tagged Cbl-b/Cbl. […] The lack of a FRET signal indicates Cbl-b/Cbl is inhibited by the Cbl-b/Cbl inhibitor.

The target of assay [2] is T2, Cbl-b (aa36-427) (Homo sapiens, UniProt Q13191).
T2 construct: Cbl-b (aa36-427, in-house); made in house
T2 sequence (Q13191 36-427): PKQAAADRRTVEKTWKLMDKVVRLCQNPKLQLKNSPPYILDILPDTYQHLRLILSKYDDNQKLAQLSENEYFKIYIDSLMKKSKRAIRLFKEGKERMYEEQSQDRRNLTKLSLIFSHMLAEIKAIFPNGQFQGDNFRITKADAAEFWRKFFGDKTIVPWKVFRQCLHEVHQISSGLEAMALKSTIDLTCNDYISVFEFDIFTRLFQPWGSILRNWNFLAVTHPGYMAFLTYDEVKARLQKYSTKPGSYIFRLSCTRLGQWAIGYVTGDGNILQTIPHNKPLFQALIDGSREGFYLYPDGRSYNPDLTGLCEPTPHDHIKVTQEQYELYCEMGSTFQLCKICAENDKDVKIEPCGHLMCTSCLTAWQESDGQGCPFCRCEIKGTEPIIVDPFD
The assay can be described thus: Co-expressed Cbl-b with BirA biochemical assay (CBLB/E2-Ub binding, HTRF). The settings on record: 0.6 nM Cbl-b co-expressed with BirA, HTRF; read-out: co-express CBLB/E2-Ub-binding assay IC50.
Excerpt: as §1

In assay [3] the target is T1, Cbl (aa49-434). The assay can be described thus: Biotin-labelled Cbl biochemical assay (CBL/E2-Ub binding, HTRF). The settings on record: 5.0 nM biotin labelled Cbl. As to the method: as §1
5.0 nM recombinant biotin labelled Cbl was pre-incubated with a serial dilution of compounds (maximum concentration is 100 µM, 3-fold serially diluted, 16 points) at room temperature for 1.5 hour in an assay buffer containing 50 mM HEPES, pH 7.0, 100 mM NaCl, 0.01% BSA, 1 mM DTT, 0.01% Triton X-100. Then 10 nM in-house UbcH5B-Ub conjugate protein, 60 nM SRC (aa251-536, in-house), 0.5 mM ATP, 5 mM MgCl2 and Streptavidin-Tb cryptate (Cat: 610SATLB, Cisbio Bioassays) were added to plate and further incubated at room temperature for 2 hours.
For orientation: Time-resolved FRET reads energy transfer from a long-lived donor to a nearby acceptor.

Assay [4] deals with T2, Cbl-b (aa36-427). The assay can be described thus: Biotin-labelled Cbl-b biochemical assay (CBLB/E2-Ub binding, HTRF). The settings on record: 5.0 nM biotin labelled Cbl-b. The method, then:
as §1
5.0 nM recombinant biotin labelled Cbl-b was pre-incubated with a serial dilution of compounds (maximum concentration is 100 μM, 3-fold serially diluted, 16 points) at room temperature for 1.5 hour in an assay buffer containing 50 mM HEPES, pH 7.0, 100 mM NaCl, 0.01% BSA, 1 mM DTT, 0.01% Triton X-100. Then 25 nM in-house UbcH5B-Ub conjugate protein, 60 nM SRC (aa251-536, in-house), 0.5 mM ATP, 5 mM MgCl2 and Streptavidin-Tb cryptate (Cat: 610SATLB, Cisbio Bioassays) were added to plate and further incubated at room temperature for 2 hours.

As to `C[C@H]1CCCN(Cc2cc(C(=O)Nc3cccc([C@]4(c5nncn5C)C[C@@H](CC#N)C4)c3)c3nccn3c2)C1` [Compound A3, N-(3-((1s,3R)-3-(cyanomethyl)-1-(4-methyl-4H-1,2,4-triazol-3-yl)cyclobutyl)phenyl)-6-(((S)-3-methylpiperidin-1-yl)methyl)imidazo[1,2-a]pyridine-8-carboxamide], the IC50 at Cbl (aa49-434) [1] worked out at 47 nM; on Cbl-b (aa36-427) [2] it was 7.1 nM; on Cbl (aa49-434) [3] it was 60.1 nM; at Cbl-b (aa36-427) [4], 5.8 nM.
`C[C@H]1CCCN(Cc2cc(C(=O)Nc3cccc([C@]4(Cc5nncn5C)C[C@@H](C#N)C4)c3)c3nccn3c2)C1` [Compound A4, N-(3-((1r,3S)-3-cyano-1-((4-methyl-4H-1,2,4-triazol-3-yl)methyl)cyclobutyl)phenyl)-6-(((S)-3-methylpiperidin-1-yl)methyl)imidazo[1,2-a]pyridine-8-carboxamide]: the IC50 was determined as 28.7 nM at Cbl (aa49-434) [3] and 3.3 nM on Cbl-b (aa36-427) [4].
